The results in this text go back to PubChem BioAssay (NCI).

SMILES strings stand for the structures.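 All cell lines were grown in 96-well plates and treated with compound for 48 hours. TGI is the concentration that stops growth completely.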

Test systems include HT29 colon; MDA-MB-435; NCI-H226 lung; UACC-62 melanoma; RXF 393 renal; SR leukemia; KM12 colon; TK-10 renal; OVCAR-8 ovarian; MCF7 breast; SNB-75 CNS; NCI-H522 lung; HCT-116 colon; COLO 205 colon; NCI-H460 lung; HCT-15 colon; SN12C renal; MOLT-4 leukemia; UACC-257 melanoma.
Common to all, as to test: DTP human tumour cell line panel, 48 h

One may read the TGI as the concentration at which net growth stops. A lower TGI goes with greater sensitivity of the cells.

Consider `CCOC(=O)N1CCN(C(=O)Nc2cccc3ccccc23)CC1`, for which the TGI with HT29 colon, with MDA-MB-435, in the test with NCI-H226 lung, in the test on UACC-62 melanoma, with RXF 393 renal and with SR leukemia was more than 10 µM each time. The TGI in the test on KM12 colon, with TK-10 renal, with OVCAR-8 ovarian, with MCF7 breast, with SNB-75 CNS and with NCI-H522 lung was more than 10 µM in each case. The TGI in the test on HCT-116 colon, in the test with COLO 205 colon, with NCI-H460 lung, in the test on HCT-15 colon, in the test on SN12C renal and with MOLT-4 leukemia was more than 10 µM in each case.
For `O=C1CC(CC(OCc2ccccc2)C(COCc2ccccc2)OCc2ccccc2)CC(=O)N1` (configuration not stated), the TGI in the test with HT29 colon is 65.9 µM; with MDA-MB-435, 85 µM; in the test on NCI-H226 lung it was more than 100 µM; in the test on RXF 393 renal it was more than 100 µM; with SR leukemia, more than 100 µM; with KM12 colon, more than 100 µM. Moreover, the TGI with OVCAR-8 ovarian is more than 100 µM; in the test with MCF7 breast, more than 100 µM; in the test on SNB-75 CNS, more than 100 µM; in the test with NCI-H522 lung it was 61.7 µM; in the test on HCT-116 colon, more than 100 µM; in the test on COLO 205 colon, 39.6 µM. Further, the TGI in the test with UACC-257 melanoma was more than 100 µM; with NCI-H460 lung, more than 100 µM; in the test on HCT-15 colon it was more than 100 µM; in the test with SN12C renal it was more than 100 µM; with MOLT-4 leukemia, 74.8 µM.
Regarding `CN1C(=O)C(O)CC1c1cccc(F)c1` (configuration not stated), the TGI in the test with HT29 colon, in the test on MDA-MB-435, in the test on NCI-H226 lung, in the test on UACC-62 melanoma, in the test with RXF 393 renal and with SR leukemia was more than 100 µM each time. Further, the total growth inhibition concentration (TGI) with KM12 colon, in the test with OVCAR-8 ovarian, with MCF7 breast, in the test with SNB-75 CNS, in the test on NCI-H522 lung and in the test on HCT-116 colon was more than 100 µM each time. For the same compound, the TGI in the test on COLO 205 colon, in the test on UACC-257 melanoma, with NCI-H460 lung, in the test on HCT-15 colon, in the test on SN12C renal and in the test on MOLT-4 leukemia was more than 100 µM throughout.
Turning to `NC(N)=NC(N)=Nc1c(F)c(F)c(F)c(F)c1F`, the TGI with HT29 colon, in the test with MDA-MB-435, with NCI-H226 lung, in the test with UACC-62 melanoma, in the test with RXF 393 renal and in the test with SR leukemia was more than 100 µM each time. Also, the TGI in the test with KM12 colon, in the test on TK-10 renal, in the test on OVCAR-8 ovarian, in the test with MCF7 breast, with SNB-75 CNS and with NCI-H522 lung was more than 100 µM each time. The TGI in the test with HCT-116 colon, with COLO 205 colon, with UACC-257 melanoma, with NCI-H460 lung, in the test with HCT-15 colon and in the test on SN12C renal was more than 100 µM throughout.
In the case of `O=[N+]([O-])c1ccc(N=NN2CCCC2)cc1`, the TGI with MDA-MB-435, with NCI-H226 lung, in the test with UACC-62 melanoma, in the test on RXF 393 renal, in the test with SR leukemia and with KM12 colon was more than 100 µM each time. In addition, the TGI in the test with TK-10 renal, with OVCAR-8 ovarian, in the test on MCF7 breast, in the test on SNB-75 CNS, with NCI-H522 lung and with HCT-116 colon was more than 100 µM each time. For the same compound, the TGI with COLO 205 colon, in the test on UACC-257 melanoma, in the test on NCI-H460 lung, in the test on HCT-15 colon, in the test on SN12C renal and in the test on MOLT-4 leukemia was more than 100 µM in each case.
For `Cc1nnc2sc(-c3ccc(-c4ccccc4Cl)o3)nn12`, the TGI in the test with HT29 colon is more than 100 µM; in the test with MDA-MB-435, 44 µM; in the test with NCI-H226 lung it was 83.5 µM; in the test with UACC-62 melanoma it was more than 100 µM; in the test with RXF 393 renal, more than 100 µM; with SR leukemia, 53.6 µM. Further, the TGI in the test on KM12 colon is more than 100 µM; with TK-10 renal, more than 100 µM; in the test on OVCAR-8 ovarian, 53.1 µM; with MCF7 breast it was more than 100 µM; with NCI-H522 lung, 78.4 µM; in the test with HCT-116 colon, 44.2 µM. Besides, the TGI with COLO 205 colon is more than 100 µM; in the test on UACC-257 melanoma, more than 100 µM; in the test with NCI-H460 lung, more than 100 µM; with HCT-15 colon, 86 µM; in the test with SN12C renal it was more than 100 µM; in the test with MOLT-4 leukemia it was 51.1 µM.
On to `Cc1ccc(C(=O)C#Cc2cn(C3CC(O)C(CO)O3)c(=O)[nH]c2=O)cc1` (configuration not stated), for which the TGI in the test with HT29 colon, in the test with MDA-MB-435, with NCI-H226 lung, with UACC-62 melanoma, in the test with RXF 393 renal and with SR leukemia was more than 100 µM throughout. Besides, the TGI was more than 100 µM in the test on KM12 colon; more than 100 µM with TK-10 renal; more than 100 µM in the test on OVCAR-8 ovarian; more than 100 µM in the test on MCF7 breast; more than 100 µM in the test with SNB-75 CNS; 23.9 µM with NCI-H522 lung. For the same compound, the TGI in the test with HCT-116 colon, in the test on COLO 205 colon, with UACC-257 melanoma, in the test with NCI-H460 lung, with HCT-15 colon and in the test on SN12C renal was more than 100 µM in each case.
For the compound `CC(=O)Nc1ccc(N2C(=O)/C(=C\c3cccc(Oc4ccccc4)c3)SC2c2ccccc2)cc1` (configuration not stated), the TGI was more than 100 µM with MDA-MB-435; more than 100 µM with NCI-H226 lung; more than 100 µM in the test with UACC-62 melanoma; more than 100 µM in the test on RXF 393 renal; 56.4 µM in the test with SR leukemia; 90.5 µM with KM12 colon. Besides, the TGI in the test with TK-10 renal is more than 100 µM; with OVCAR-8 ovarian it was 34.8 µM; in the test on MCF7 breast, 65.8 µM; in the test with NCI-H522 lung, 58.4 µM; with HCT-116 colon, 39.6 µM; in the test on COLO 205 colon, more than 100 µM. The concentration for total growth inhibition (TGI) was more than 100 µM in the test on UACC-257 melanoma; more than 100 µM with NCI-H460 lung; more than 100 µM with HCT-15 colon; 97 µM with SN12C renal; 68.5 µM in the test with MOLT-4 leukemia.
